Assays:
kinase [1] = target: kinase (Homo sapiens, UniProt P00533); assay: Radioisotope filter binding assay (33P-ATP kinase activity, IC50); assay type: biochemical; settings: EGFR WT, read-out: IC50 Activity level EGFR WT
Experimental: (§1) Radioisotope Filter Binding Assay: In this assay format, it directly detects the true product without the use of modified substrates or coupling enzymes (Uitdehaag, J. C. et al. Br. J. Pharmacol. 2012, 166, 858-876; Hastie, C. J. et al. Nat. Protoc. 2006, 1, 968-971) according to equation 1.
(§2) The protocol calls for test compound of the invention to be incubated with kinase, substrate, cofactors, and radio-isotope-labeled ATP (^33P-gamma-ATP). The reaction mixtures are then spotted onto filter papers which bind the radioisotope labeled catalytic product. Unreacted phosphate is removed via washing. The reagents used include base reaction buffer; 20 mM Hepes (pH 7.5), 10 mM MgCl2, 1 mM EGTA, 0.02% Brij35, 0.02 mg/ml BSA, 0.1 mM Na3VO4, 2 mM DTT, 1% DMSO. The reaction procedure include the following steps: (1) prepare indicated substrate in freshly prepared base reaction buffer, (2) deliver any required cofactors to the substrate solution above, (3) deliver indicated kinase into the substrate solution and gently mix, (4) deliver compounds in DMSO into the kinase reaction mixture by Acoustic technology (Echo550; nanoliter range), incubate for 20 minutes at room temperature, (5) deliver ^33P-ATP (specific activity 10 μCi/μL) into the reaction mixture to initiate the reaction, (6) incubate kinase reaction for 2 hours at room temperature, (7) reactions are spotted onto P81 ion exchange paper, (8) detect kinase activity by filter-binding method.

kinase [2] = target: kinase (Homo sapiens, UniProt P00533, DEL746-750); assay: as above; assay type: biochemical; settings: EGFR E746-A750del, read-out: IC50 Activity level EGFR E746-A750del
Experimental: as §1, §2

kinase [3] = target: kinase (Homo sapiens, UniProt P00533, L858R); assay: as above; assay type: biochemical; settings: EGFR L858R, read-out: IC50 Activity level EGFR L858R
Experimental: as §1, §2

kinase [4] = target: kinase (Homo sapiens, UniProt Q15303); assay: as above; assay type: biochemical; settings: HER 4, read-out: IC50 Activity level HER 4
Experimental: as §1, §2

kinase [5] = assay: as above; assay type: biochemical; settings: HER 2, read-out: IC50 Activity level HER 2
Experimental: as §1, §2

EGFR (L858R) = EGFR (L858R) (Homo sapiens (Human), UniProt P00533, L858R); assay: KinaseSeeker rabbit reticulocyte lysate competition binding assay (IC50)
Experimental: (§3) Luminescence readout translates into a highly sensitive and robust assay with low background and minimal interference from test compounds.
(§4) 10 mM stock solutions of test compounds were serially diluted in DMSO to make assay stocks. Prior to initiating IC50 determinations, the test compounds were evaluated for false positive against split-luciferase.
(§5) For kinase assays, Cfluc-kinase was translated along with Fos-Nfluc using a cell-free system (rabbit reticulocyte lysate) at 30° C. for 90 min. 24 uL aliquot of this lysate containing either 1 uL of DMSO (for no-inhibitor control) or compound solution in DMSO was incubated for 30 minutes at room temperature followed by 1 hour in presence of a kinase specific probe. 80 uL of luciferin assay reagent was added to each solution and luminescence was immediately measured on a luminometer.
(§6) The % Activity was plotted against compound concentration and the IC50 was determined for each compound using a 7-point curve (Jester, B. W.; et. al. J. Am. Chem. Soc. 2010, 132, 11727-11735. Jester, B. W.; et. al. J. Med. Chem. 2012, 55, 1526-1537).

EGFR WT = EGFR WT (Homo sapiens (Human), UniProt P00533); assay: as above
Experimental: as §3, §4, §5, §6

EGFR E746-A750del = EGFR E746-A750del (Homo sapiens (Human), UniProt P00533, DEL746-750); assay: KINOMEscan competition binding assay (Kd); settings: KINOMEscan binding constant; read-out: Kd Activity Level (EGFR E746-A750del)
Experimental: (§7) The assay is performed by combining three components: DNA-tagged kinase; immobilized ligand; and a test compound. The ability of the test compound to compete with the immobilized ligand is measured via quantitative PCR of the DNA tag.
(§8) For most assays, kinase-tagged T7 phage strains were prepared in an E. coli host derived from the BL21 strain. E. coli were grown to log-phase and infected with T7 phage and incubated with shaking at 32° C. until lysis. The lysates were centrifuged and filtered to remove cell debris. The remaining kinases were produced in HEK-293 cells and subsequently tagged with DNA for qPCR detection. Streptavidin-coated magnetic beads were treated with biotinylated small molecule ligands for 30 minutes at room temperature to generate affinity resins for kinase assays. The liganded beads were blocked with excess biotin and washed with blocking buffer (SeaBlock (Pierce), 1% BSA, 0.05% Tween 20, 1 mM DTT) to remove unbound ligand and to reduce nonspecific binding. […] All reactions were performed in polystyrene 96-well plates in a final volume of 0.135 ml. […] The kinase concentration in the eluates was measured by qPCR.

EGFR S752-I759del = EGFR S752-I759del (Homo sapiens (Human), UniProt P00533, DEL752-759); assay: KINOMEscan competition binding assay (Kd); settings: KINOMEscan binding constant; read-out: Kd Activity Level (EGFR S752-I759del)
Experimental: as §7, §8

HER2 = HER2 (Homo sapiens (Human), UniProt P04626); assay: KinaseSeeker rabbit reticulocyte lysate competition binding assay (IC50)
Experimental: as §3, §4, §5, §6

[6] = target: various mutant EGF receptors (Homo sapiens, UniProt P00533, A750P/DEL747-749); assay: KINOMEscan competition binding assay (Kd), Example 40 in various mutant EGF receptors (Table 17)
Experimental: as §7, §8

[7] = target: various mutant EGF receptors (Homo sapiens, UniProt P00533, DEL747-751/INS746S); assay: as above
Experimental: as §7, §8

[8] = target: various mutant EGF receptors (Homo sapiens, UniProt P00533, DEL747-752/P753S); assay: as above
Experimental: as §7, §8

[9] = target: various mutant EGF receptors (Homo sapiens, UniProt P00533, G719C); assay: as above
Experimental: as §7, §8

[10] = target: various mutant EGF receptors (Homo sapiens, UniProt P00533, G719S); assay: as above
Experimental: as §7, §8

[11] = target: various mutant EGF receptors (Homo sapiens, UniProt P00533, L861Q); assay: as above
Experimental: as §7, §8

kinase (Homo sapiens, UniProt P00533), sequence (P00533 25-1210 limits assumed): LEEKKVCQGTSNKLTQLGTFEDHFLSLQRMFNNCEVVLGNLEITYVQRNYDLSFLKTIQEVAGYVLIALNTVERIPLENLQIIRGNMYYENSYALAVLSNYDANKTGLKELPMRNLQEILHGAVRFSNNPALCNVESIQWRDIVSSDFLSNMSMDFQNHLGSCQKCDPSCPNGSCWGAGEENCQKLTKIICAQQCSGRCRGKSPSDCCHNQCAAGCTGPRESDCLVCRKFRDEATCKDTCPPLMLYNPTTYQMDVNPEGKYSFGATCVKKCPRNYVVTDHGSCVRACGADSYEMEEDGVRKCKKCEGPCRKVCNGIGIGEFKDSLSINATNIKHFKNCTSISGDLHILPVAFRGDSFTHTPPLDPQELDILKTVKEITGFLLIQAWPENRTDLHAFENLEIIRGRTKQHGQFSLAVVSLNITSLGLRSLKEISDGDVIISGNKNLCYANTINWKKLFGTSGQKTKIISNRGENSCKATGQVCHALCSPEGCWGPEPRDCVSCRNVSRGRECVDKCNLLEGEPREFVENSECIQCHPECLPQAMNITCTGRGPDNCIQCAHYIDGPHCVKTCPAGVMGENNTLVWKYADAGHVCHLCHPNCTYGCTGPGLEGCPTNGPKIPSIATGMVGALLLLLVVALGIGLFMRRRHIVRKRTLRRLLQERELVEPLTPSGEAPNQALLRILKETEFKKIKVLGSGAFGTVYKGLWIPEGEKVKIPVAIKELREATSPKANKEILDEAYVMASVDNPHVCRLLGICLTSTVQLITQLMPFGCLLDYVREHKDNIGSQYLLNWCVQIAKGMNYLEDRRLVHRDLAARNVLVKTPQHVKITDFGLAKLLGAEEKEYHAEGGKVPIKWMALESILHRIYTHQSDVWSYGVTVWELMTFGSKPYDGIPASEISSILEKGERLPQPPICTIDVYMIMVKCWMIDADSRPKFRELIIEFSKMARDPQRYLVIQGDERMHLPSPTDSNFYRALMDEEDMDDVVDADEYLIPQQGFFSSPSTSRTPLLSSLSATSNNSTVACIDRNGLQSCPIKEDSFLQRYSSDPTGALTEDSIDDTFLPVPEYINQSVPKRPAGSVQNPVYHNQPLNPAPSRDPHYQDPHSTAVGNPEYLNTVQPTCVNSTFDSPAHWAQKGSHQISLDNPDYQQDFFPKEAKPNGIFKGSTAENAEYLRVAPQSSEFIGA
EGFR WT, sequence (P00533 25-1210): as the sequence (P00533 25-1210 limits assumed) above
kinase (Homo sapiens, UniProt Q15303), sequence (Q15303 26-1308 limits assumed): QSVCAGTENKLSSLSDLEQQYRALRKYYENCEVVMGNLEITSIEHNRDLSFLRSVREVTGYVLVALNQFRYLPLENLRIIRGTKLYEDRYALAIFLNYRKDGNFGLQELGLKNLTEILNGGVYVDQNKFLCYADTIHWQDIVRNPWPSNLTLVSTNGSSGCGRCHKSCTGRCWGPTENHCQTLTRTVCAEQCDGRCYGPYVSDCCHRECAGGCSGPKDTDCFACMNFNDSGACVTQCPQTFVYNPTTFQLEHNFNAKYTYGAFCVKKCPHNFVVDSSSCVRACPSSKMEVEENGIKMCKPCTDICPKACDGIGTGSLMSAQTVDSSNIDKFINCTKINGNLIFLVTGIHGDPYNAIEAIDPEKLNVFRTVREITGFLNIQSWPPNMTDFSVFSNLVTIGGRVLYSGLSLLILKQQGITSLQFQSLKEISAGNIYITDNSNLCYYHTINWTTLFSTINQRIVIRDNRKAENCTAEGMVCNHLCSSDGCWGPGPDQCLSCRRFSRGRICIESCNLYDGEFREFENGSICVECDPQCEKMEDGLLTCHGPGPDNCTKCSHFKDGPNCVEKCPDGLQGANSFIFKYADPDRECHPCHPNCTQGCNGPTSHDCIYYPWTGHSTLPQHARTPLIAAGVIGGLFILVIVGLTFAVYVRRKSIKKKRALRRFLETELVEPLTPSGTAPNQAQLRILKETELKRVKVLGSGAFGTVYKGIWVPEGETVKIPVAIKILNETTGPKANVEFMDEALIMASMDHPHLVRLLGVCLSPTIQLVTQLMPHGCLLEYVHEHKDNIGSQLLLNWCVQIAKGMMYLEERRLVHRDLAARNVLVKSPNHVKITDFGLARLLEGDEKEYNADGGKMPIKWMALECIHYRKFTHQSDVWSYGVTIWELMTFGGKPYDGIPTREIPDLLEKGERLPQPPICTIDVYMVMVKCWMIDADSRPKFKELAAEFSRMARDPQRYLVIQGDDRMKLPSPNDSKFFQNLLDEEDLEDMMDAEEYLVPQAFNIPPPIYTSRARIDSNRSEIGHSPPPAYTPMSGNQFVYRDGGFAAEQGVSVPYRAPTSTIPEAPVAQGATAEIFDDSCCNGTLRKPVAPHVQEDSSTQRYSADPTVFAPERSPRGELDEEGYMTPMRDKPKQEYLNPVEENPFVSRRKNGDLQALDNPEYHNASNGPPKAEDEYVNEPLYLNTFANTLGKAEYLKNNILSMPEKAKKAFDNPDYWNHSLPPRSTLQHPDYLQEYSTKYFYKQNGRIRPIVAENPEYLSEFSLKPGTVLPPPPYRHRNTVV
kinase (Homo sapiens, UniProt P00533, DEL746-750), sequence (P00533 with tags, fused parts or gaps DEL746-750 limits assumed): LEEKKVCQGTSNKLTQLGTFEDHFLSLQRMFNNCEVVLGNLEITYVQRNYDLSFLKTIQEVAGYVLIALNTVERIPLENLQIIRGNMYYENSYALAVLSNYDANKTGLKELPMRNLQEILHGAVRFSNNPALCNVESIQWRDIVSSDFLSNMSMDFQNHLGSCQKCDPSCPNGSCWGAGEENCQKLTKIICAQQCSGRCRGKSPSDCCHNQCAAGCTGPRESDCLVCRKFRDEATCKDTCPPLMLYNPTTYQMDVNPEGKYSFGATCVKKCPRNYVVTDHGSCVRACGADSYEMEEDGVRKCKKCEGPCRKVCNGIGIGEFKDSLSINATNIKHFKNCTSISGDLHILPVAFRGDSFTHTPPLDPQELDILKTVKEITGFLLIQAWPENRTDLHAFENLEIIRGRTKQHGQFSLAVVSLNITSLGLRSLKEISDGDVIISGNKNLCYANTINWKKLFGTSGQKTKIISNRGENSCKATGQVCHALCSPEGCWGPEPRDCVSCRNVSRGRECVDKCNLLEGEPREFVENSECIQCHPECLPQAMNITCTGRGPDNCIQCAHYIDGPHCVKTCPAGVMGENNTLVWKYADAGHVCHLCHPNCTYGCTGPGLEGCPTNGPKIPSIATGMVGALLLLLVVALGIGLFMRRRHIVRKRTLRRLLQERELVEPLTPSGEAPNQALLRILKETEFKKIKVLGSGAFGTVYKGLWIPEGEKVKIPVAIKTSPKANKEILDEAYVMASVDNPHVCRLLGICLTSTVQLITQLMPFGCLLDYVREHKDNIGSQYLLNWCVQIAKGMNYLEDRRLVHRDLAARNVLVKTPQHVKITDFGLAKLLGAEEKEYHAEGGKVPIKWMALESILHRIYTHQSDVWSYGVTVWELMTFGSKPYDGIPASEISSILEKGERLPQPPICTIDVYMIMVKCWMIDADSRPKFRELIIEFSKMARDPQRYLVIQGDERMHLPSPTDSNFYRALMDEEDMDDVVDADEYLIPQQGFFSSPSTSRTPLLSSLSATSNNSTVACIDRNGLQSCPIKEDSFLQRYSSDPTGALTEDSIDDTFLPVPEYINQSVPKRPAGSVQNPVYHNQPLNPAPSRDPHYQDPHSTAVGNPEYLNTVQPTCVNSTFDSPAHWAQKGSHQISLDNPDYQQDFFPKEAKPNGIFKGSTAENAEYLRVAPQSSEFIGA

N#Cc1cnc2cc(OC[C@@H](O)CO)c(NC(=O)C3CSSC3)cc2c1Nc1ccc(OCc2cccc(F)c2)c(Cl)c1 [Example 98, (S)—N-(4-((3-Chloro-4-((3-fluorobenzyl)oxy)phenyl)amino)-3-cyano-7-(2,3dihydroxypropoxy)quinolin-6-yl)-1,2-dithiolane-4-carboxamide]
IC50 (kinase [1]): 1 to 99 nM | IC50 (kinase [2]): 100 to 999 nM | IC50 (kinase [3]): 1 to 99 nM | IC50 (kinase [4]): 1 to 99 nM | IC50 (kinase [5]): 100 to 999 nM | IC50 (EGFR (L858R)): 1 to 99 nM | IC50 (EGFR WT): 100 to 999 nM

N#Cc1cnc2ccc(NC(=O)C3CSSC3)cc2c1Nc1ccc(OCc2cccc(F)c2)c(Cl)c1 [Example 61, N-(4-((3-Chloro-4-((3-fluorobenzyl)oxy)phenyl)amino)-3-cyanoquinolin-6-yl)-1,2-dithiolane-4-carboxamide]
IC50 (kinase [4]): 100 to 999 nM

N#Cc1cnc2cc(OC[C@H](O)CO)c(NC(=O)CC3CSSC3)cc2c1Nc1ccc(OCc2cccc(F)c2)c(Cl)c1 [Example 90, (R)—N-(4-((3-Chloro-4-((3-fluorobenzyl)oxy)phenyl)amino)-3-cyano-7-(2,3-dihydroxypropoxy)quinolin-6-yl)-2-(1,2-dithiolan-4-yl)acetamide]
IC50 (kinase [1]): 1 to 99 nM | IC50 (kinase [2]): 1000 to 10000 nM | IC50 (kinase [3]): 100 to 999 nM | IC50 (kinase [4]): 1 to 99 nM | IC50 (EGFR (L858R)): 1 to 99 nM | IC50 (EGFR WT): 100 to 999 nM

N#Cc1cnc2cc(OC[C@H](O)CO)c(NC(=O)C3CSSC3)cc2c1Nc1ccc(OCc2cccc(F)c2)c(Cl)c1 [Example 95, (R)—N-(4-((3-Chloro-4-((3-fluorobenzyl)oxy)phenyl)amino)-3-cyano-7-(2,3-dihydroxypropoxy)quinolin-6-yl)-1,2-dithiolane-4-carboxamide]
IC50 (kinase [1]): 1 to 99 nM | IC50 (kinase [2]): 1000 to 10000 nM | IC50 (kinase [3]): 100 to 999 nM | IC50 (EGFR (L858R)): 1 to 99 nM | IC50 (EGFR WT): 100 to 999 nM

N#Cc1cnc2ccc(NC(=O)CC3CCSS3)cc2c1Nc1ccc(OCc2cccc(F)c2)c(Cl)c1 (stereo not shown) [Example 62, N-(4-((3-Chloro-4-((3-fluorobenzyl)oxy)phenyl)amino)-3-cyanoquinolin-6-yl)-2-(1,2-dithiolan-3-yl)acetamide]
IC50 (kinase [4]): 1 to 99 nM | IC50 (EGFR (L858R)): 1 to 99 nM | IC50 (EGFR WT): 100 to 999 nM

N#Cc1cnc2cc(OC[C@@H](O)CO)c(NC(=O)CC3CSSC3)cc2c1Nc1ccc(OCc2cccc(F)c2)c(Cl)c1 [Example 92, (S)—N-(4-((3-Chloro-4-((3-fluorobenzyl)oxy)phenyl)amino)-3-cyano-7-(2,3-dihydroxypropoxy)quinolin-6-yl)-2-(1,2-dithiolan-4-yl)acetamide]
Kd (EGFR E746-A750del): 1 to 99 nM | Kd (EGFR S752-I759del): 1 to 99 nM | IC50 (kinase [1]): 1 to 99 nM | IC50 (kinase [2]): 1000 to 10000 nM | IC50 (kinase [3]): 100 to 999 nM | IC50 (kinase [4]): 1 to 99 nM | IC50 (kinase [5]): 100 to 999 nM | IC50 (EGFR (L858R)): 1 to 99 nM | IC50 (EGFR WT): 100 to 999 nM | IC50 (HER2): 100 to 999 nM

CCOc1cc2ncc(C#N)c(Nc3ccc(OCc4cccc(F)c4)c(Cl)c3)c2cc1NC(=O)CC1CCSS1 (stereo not shown) [Example 40]
Kd (EGFR E746-A750del): 1 to 99 nM | Kd (EGFR S752-I759del): 1 to 99 nM | IC50 (EGFR (L858R)): 1 to 99 nM | IC50 (EGFR WT): 100 to 999 nM | IC50 (HER2): 100 to 999 nM | Kd [6]: 1 to 99 nM | Kd [7]: 1 to 99 nM | Kd [8]: 1 to 99 nM | Kd [9]: 1 to 99 nM | Kd [10]: 1 to 99 nM | Kd [11]: 1 to 99 nM
